Laboratory results taken from US10537545B2, “Ceramide derivatives as anticancer agents” (Rutgers, The State University of New Jersey, priority 2015, dated 2020).

Tests used:
HDAC6 = target: T1, HDAC6 (Homo sapiens, UniProt Q9UBN7); assay: HDAC inhibitor assay, HDAC6; assay type: biochemical; conditions: class II B HDAC6; read-out: IC50, inhibition of HDAC6
T1 sequence (Q9UBN7 1-1215): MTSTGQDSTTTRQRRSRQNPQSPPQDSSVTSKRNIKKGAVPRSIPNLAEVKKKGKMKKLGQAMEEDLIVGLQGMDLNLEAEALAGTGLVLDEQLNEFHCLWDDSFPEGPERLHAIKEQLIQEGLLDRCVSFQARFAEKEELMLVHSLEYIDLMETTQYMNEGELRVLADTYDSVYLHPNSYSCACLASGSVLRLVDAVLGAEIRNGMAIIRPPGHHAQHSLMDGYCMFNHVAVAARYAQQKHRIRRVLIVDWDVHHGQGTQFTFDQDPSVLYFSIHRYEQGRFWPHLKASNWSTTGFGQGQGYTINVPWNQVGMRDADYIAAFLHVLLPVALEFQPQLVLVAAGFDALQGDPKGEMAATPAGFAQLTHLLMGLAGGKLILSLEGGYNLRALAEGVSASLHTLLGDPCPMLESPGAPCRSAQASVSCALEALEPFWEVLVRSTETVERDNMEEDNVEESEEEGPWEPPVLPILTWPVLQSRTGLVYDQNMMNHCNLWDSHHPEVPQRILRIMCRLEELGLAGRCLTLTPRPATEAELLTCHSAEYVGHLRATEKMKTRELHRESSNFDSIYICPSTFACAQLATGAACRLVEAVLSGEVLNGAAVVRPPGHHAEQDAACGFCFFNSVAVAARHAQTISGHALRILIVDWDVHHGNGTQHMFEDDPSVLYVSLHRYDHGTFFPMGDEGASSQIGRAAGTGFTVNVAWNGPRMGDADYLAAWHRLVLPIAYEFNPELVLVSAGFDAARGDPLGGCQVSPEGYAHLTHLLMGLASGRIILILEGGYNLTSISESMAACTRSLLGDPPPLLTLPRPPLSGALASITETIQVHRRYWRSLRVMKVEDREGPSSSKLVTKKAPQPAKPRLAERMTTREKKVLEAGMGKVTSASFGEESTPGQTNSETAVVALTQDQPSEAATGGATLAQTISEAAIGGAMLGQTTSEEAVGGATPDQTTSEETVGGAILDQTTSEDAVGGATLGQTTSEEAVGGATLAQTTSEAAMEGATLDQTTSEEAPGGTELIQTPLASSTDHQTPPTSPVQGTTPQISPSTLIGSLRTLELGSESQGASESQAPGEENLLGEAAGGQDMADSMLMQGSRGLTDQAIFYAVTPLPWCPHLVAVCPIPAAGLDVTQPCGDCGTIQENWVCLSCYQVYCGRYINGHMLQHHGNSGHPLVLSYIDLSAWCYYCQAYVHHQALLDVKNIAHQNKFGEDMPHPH
Description: (§1) Compound VIII was subjected to enzymatic inhibition test against the class I (HDAC1, HDAC2, HDAC3 and HDAC8), the class II A (HDAC4, HDAC5, HDAC7 and HDAC9) and the class II B (HDAC6) enzymes. HDAC inhibitors Trichostatin A (TSA) and TMP269 (TMP) were used as reference compounds.

HDAC1 = HDAC1 (Homo sapiens, UniProt Q13547); assay: HDAC inhibitor assay, HDAC1; assay type: biochemical; conditions: up to 50 or 100 μM
Sequence of HDAC1 (Q13547 whole entry, species assumed): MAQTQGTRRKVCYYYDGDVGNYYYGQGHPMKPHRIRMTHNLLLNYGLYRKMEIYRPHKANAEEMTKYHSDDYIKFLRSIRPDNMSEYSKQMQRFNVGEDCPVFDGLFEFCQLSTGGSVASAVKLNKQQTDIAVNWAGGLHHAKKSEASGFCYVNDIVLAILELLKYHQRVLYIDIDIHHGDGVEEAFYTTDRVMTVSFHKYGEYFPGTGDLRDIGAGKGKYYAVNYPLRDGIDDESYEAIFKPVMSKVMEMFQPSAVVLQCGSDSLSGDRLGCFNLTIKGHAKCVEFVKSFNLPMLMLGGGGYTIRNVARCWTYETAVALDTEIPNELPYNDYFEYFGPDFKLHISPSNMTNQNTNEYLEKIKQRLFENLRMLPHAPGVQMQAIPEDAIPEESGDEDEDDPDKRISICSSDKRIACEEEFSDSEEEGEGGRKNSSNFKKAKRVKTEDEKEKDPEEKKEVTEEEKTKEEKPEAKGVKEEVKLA
Description: as §1

HDAC2 = HDAC2 (Homo sapiens, UniProt Q92769); assay: HDAC inhibitor assay, HDAC2; assay type: biochemical; conditions: up to 50 or 100 μM
Sequence of HDAC2 (Q92769 whole entry, species assumed): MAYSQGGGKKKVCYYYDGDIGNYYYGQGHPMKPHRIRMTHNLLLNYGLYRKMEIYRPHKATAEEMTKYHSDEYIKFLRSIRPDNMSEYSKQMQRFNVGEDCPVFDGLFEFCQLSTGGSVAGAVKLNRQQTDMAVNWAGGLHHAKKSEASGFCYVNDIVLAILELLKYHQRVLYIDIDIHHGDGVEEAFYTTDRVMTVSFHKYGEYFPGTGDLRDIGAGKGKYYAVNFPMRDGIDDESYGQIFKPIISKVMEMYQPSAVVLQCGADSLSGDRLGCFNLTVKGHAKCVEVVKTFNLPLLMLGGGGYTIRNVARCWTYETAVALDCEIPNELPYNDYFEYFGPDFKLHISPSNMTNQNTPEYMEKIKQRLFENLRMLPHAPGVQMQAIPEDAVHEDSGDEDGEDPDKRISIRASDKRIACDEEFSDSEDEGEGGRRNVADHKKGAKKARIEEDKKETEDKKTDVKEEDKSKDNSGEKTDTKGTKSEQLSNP
Description: as §1

HDAC3 = HDAC3 (Homo sapiens, UniProt O15379); assay: HDAC inhibitor assay, HDAC3; assay type: biochemical; conditions: up to 50 or 100 μM
Sequence of HDAC3 (O15379 whole entry, species assumed): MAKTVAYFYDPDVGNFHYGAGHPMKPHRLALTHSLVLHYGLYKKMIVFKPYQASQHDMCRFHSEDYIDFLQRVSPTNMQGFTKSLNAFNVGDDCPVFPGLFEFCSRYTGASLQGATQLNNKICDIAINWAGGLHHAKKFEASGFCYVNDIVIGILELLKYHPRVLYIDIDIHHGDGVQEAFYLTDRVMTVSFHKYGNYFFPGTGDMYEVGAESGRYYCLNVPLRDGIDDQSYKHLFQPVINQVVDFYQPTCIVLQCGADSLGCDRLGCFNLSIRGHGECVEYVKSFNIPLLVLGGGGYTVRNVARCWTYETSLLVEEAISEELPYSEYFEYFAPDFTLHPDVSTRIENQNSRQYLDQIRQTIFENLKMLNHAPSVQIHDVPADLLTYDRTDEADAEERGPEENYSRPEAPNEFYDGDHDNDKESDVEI
Sequence of HDAC3 (Q9Y618 395-489 partner limits assumed, species assumed): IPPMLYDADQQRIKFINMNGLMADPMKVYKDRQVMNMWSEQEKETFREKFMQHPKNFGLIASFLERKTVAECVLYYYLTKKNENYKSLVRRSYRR
Description: as §1

HDAC8 = target: T2, HDAC8 (Homo sapiens, UniProt Q9BY41); assay: HDAC inhibitor assay, HDAC8; assay type: biochemical; conditions: up to 50 or 100 μM
T2 sequence (Q9BY41 1-377): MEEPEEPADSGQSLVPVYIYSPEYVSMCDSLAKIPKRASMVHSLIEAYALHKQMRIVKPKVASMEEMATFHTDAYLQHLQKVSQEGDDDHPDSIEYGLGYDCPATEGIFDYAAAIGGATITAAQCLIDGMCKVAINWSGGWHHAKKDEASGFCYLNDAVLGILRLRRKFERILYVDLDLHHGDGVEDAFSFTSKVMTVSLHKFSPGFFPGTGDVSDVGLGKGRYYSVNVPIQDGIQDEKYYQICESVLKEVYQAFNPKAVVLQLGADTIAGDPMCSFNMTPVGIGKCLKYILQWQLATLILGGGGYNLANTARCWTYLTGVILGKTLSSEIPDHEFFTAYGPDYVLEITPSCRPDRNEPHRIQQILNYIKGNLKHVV
Description: as §1

HDAC4 = HDAC4 (Homo sapiens, UniProt P56524); assay: HDAC inhibitor assay, HDAC4; assay type: biochemical; conditions: up to 50 or 100 μM
Sequence of HDAC4 (P56524 whole entry, species assumed): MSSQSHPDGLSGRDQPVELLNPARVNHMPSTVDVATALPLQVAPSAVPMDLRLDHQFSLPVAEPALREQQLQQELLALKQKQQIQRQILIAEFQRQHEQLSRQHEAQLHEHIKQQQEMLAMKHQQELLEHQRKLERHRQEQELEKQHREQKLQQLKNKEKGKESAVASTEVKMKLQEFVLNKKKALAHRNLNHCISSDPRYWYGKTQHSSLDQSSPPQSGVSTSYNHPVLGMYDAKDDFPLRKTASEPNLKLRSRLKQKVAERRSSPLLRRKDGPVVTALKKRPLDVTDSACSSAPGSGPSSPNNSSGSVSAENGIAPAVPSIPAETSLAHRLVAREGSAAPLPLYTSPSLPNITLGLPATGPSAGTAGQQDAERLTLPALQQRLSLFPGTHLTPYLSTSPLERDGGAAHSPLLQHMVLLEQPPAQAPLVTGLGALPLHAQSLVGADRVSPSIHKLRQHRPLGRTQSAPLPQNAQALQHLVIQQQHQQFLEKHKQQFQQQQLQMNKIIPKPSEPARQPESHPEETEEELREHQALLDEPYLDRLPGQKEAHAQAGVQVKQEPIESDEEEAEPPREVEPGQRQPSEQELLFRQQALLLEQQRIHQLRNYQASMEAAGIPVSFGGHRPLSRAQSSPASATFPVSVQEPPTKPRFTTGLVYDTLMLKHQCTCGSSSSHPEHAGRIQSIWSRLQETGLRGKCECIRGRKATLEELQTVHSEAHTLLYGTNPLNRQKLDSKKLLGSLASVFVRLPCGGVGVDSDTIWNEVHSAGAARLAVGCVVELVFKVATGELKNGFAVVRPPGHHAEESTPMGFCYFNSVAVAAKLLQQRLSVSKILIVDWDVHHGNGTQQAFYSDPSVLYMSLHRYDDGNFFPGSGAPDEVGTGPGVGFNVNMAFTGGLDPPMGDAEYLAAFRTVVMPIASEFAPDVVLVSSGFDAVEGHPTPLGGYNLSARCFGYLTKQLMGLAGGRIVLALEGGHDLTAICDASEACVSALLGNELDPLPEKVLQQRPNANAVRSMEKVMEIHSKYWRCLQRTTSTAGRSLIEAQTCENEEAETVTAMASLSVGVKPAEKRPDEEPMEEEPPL
Description: as §1

HDAC5 = HDAC5 (Homo sapiens, UniProt Q9UQL6); assay: HDAC inhibitor assay, HDAC5; assay type: biochemical; conditions: up to 50 or 100 μM
Sequence of HDAC5 (Q9UQL6 whole entry, species assumed): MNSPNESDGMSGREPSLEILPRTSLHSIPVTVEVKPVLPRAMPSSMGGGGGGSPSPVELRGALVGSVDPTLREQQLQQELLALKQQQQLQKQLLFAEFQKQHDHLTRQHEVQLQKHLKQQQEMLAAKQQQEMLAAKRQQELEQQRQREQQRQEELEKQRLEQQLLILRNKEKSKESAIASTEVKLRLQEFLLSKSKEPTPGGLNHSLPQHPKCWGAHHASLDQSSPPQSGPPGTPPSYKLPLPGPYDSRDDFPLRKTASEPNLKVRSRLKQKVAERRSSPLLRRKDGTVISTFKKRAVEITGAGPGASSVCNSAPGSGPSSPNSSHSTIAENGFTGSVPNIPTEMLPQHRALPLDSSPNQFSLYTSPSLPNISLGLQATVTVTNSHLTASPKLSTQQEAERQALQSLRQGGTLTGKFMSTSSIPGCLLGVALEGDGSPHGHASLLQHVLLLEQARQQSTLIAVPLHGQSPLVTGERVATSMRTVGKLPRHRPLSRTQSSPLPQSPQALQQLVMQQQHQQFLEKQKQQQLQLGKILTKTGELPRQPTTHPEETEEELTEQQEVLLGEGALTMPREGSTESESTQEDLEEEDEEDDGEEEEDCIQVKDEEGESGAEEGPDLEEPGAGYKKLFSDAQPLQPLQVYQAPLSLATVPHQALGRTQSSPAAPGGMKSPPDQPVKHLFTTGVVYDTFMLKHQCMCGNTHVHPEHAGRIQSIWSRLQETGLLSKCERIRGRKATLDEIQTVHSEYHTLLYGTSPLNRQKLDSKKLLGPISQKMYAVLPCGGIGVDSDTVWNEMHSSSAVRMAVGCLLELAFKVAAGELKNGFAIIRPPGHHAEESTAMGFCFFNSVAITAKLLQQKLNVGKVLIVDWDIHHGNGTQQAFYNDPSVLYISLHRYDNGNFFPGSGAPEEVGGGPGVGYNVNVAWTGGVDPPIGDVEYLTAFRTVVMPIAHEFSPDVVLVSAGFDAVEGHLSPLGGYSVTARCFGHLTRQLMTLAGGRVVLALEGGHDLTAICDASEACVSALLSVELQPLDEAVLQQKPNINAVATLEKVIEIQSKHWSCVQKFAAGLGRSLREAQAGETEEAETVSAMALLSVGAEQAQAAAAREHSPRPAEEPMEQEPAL
Description: as §1

HDAC7 = target: T3, HDAC7 (Homo sapiens, UniProt Q8WUI4); assay: HDAC inhibitor assay, HDAC7; assay type: biochemical; conditions: up to 50 or 100 μM
T3 sequence (Q8WUI4 1-952): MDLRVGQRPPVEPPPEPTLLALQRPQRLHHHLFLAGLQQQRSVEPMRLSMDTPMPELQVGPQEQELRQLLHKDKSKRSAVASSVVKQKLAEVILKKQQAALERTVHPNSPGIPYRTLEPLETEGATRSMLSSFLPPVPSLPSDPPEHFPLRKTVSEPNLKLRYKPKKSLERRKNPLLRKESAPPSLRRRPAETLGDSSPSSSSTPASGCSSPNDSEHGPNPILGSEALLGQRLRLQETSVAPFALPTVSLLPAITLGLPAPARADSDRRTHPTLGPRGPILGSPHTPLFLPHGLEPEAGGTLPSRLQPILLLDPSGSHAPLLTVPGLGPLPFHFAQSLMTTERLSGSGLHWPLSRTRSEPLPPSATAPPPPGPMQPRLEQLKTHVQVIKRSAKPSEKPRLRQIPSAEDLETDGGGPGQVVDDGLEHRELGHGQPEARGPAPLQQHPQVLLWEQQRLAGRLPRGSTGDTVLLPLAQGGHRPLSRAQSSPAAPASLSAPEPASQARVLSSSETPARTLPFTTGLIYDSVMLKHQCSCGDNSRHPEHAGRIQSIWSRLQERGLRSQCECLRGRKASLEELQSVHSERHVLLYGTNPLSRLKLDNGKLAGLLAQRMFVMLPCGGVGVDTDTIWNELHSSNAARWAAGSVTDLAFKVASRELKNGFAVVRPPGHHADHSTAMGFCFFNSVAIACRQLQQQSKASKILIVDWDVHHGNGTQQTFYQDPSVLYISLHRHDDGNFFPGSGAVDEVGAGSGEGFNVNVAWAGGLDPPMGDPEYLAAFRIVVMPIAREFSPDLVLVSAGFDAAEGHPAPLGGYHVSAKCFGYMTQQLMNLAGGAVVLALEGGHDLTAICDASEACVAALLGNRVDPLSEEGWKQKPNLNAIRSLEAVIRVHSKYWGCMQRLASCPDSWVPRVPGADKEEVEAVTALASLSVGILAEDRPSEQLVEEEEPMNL
Description: as §1

HDAC9 = HDAC9 (Homo sapiens, UniProt Q9UKV0); assay: HDAC inhibitor assay, HDAC9; assay type: biochemical; conditions: up to 50 or 100 μM
Sequence of HDAC9 (Q9UKV0 whole entry, species assumed): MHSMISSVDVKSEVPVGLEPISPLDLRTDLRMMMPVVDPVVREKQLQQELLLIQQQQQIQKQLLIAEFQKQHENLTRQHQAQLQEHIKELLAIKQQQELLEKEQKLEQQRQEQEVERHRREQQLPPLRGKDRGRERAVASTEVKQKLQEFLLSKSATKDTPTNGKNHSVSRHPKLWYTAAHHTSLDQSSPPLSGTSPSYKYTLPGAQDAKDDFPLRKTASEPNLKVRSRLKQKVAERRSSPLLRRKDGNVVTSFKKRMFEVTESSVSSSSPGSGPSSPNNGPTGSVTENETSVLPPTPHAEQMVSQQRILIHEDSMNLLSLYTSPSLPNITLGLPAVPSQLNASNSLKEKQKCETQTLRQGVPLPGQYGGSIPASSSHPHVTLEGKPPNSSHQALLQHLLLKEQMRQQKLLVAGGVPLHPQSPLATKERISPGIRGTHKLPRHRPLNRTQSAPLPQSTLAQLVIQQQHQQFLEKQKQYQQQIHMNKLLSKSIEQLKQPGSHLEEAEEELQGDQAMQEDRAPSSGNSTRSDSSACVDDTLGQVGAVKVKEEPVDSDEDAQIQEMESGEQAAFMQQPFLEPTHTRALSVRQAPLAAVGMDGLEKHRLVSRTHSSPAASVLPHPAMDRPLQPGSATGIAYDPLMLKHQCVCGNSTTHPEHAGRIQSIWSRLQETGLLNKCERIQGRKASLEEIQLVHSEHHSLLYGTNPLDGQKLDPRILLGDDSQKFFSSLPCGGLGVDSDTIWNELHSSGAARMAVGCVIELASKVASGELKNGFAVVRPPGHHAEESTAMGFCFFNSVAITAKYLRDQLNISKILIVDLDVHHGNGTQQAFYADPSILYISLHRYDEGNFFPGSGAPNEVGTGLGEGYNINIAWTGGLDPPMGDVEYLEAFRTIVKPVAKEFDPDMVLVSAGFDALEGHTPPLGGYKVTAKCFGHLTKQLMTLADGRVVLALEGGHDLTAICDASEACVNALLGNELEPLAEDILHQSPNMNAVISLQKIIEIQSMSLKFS
Description: as §1

HELA [1] = assay: Cytotoxicity assay, HELA cancer cell line; assay type: cell-based; conditions: for CTRL HELA (growth relative to control): control = 1; for Growth HELA: control growth 0.55
Description: (§2) Cytotoxicity Assay. […] Cells were treated with varying concentrations of compounds. The IC50 were measured. […] In order to verify that assumption an LDH (Lactate Dehydrogenase) assay was performed.

MCF7 [2] = assay: Cytotoxicity assay, MCF7 cancer cell line; assay type: cell-based, human; conditions: for CTRL MCF7 (growth relative to control): control = 1; for Growth MCF7: control growth 0.7
Description: as §2

HELA [3] = conditions: reported in Andrianasolo et al., J. Nat. Prod. 2011, read-out: IC50, growth inhibition of HeLa (cervical cancer); cited from earlier work
MCF7 [4] = conditions: reported in Andrianasolo et al., J. Nat. Prod. 2011, read-out: IC50, growth inhibition of MCF7 (breast cancer); cited from earlier work

Structure (SMILES)	IC50 (HDAC6)	Inhibition of HDAC1 (HDAC1)	Inhibition of HDAC2 (HDAC2)	Inhibition of HDAC3 (HDAC3)	Inhibition of HDAC8 (HDAC8)	Inhibition of HDAC4 (HDAC4)	Inhibition of HDAC5 (HDAC5)	Inhibition of HDAC7 (HDAC7)	Inhibition of HDAC9 (HDAC9)	CTRL HELA (growth relative to control) (HELA [1]; 72 μg*0.01/ml)	Growth HELA (HELA [1]; 72 μg*0.01/ml)	CTRL HELA (growth relative to control) (HELA [1]; 360 μg*0.01/ml)	Growth HELA (HELA [1]; 360 μg*0.01/ml)	CTRL MCF7 (growth relative to control) (MCF7 [2]; 72 μg*0.01/ml)	Growth MCF7 (MCF7 [2]; 72 μg*0.01/ml)	CTRL MCF7 (growth relative to control) (MCF7 [2]; 360 μg*0.01/ml)	Growth MCF7 (MCF7 [2]; 360 μg*0.01/ml)	IC50 (HELA [3])	IC50 (MCF7 [4])
C=C1CC[C@@H]2O[C@@]2(C)CC[C@H](/C(=C/CC2OC2(C)C)CO)[C@H]1C(=O)OC (stereo partly drawn) [compound VIII]	~80000 nM	did not significantly inhibit	did not significantly inhibit	did not significantly inhibit	did not significantly inhibit	did not significantly inhibit	did not significantly inhibit	did not significantly inhibit	did not significantly inhibit	–	–	–	–	–	–	–	–	–	–
CCC/C=C\C/C=C\C/C=C\CCCCC(=O)O[C@@H](COC(=O)CCCCCCCCCCCCCCC)[C@H](O)[C@H](CO)NC(=O)CCCCCCCCCCC (relative stereo) [compound 1]	–	–	–	–	–	–	–	–	–	0.78	0.43	0.56	0.31	0.42	0.29	0.15	0.11	400 nM	100 nM
CCC/C=C\C/C=C\CCC(=O)O[C@@H](COC(=O)CCCCCCCCCCCCC)[C@H](O)[C@H](CO)NC(=O)CCCCCCCCCCC [compound 2]	–	–	–	–	–	–	–	–	–	–	–	–	–	–	–	–	–	500 nM	200 nM
